Test results published in PubChem BioAssay (NCI).
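Five compound concentrations were applied to cells in 96-well plates for 48 hours; endpoints were derived by simple linear interpolation of the resulting dose-response curve. TGI: total growth inhibition.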

What follows are compounds tested on MOLT-4 leukemia (assay: inhibition of tumour cell growth, NCI panel, 48 h).

Row | Structure (SMILES) | TGI
1 | CC(C)[C@@H](C)CC[C@@H](C)C1CC=C2[C@@H]3CCC4C[C@@H](O[Si](C)(C)C(C)(C)C)CC[C@]4(C)C3CC[C@@]21C (stereo partly specified) | > 100 µM
2 | COc1ccc(SS(=O)(=O)c2ccc(OC)cc2)cc1 | 47.8 µM
3 | O=C(Nc1nc(=S)[nH][nH]1)C(=O)C1C(=O)Nc2ccccc2S1=O (stereo unspecified) | > 100 µM
4 | Cn1ccnc1CCc1ccc(Cl)cc1Cl | > 100 µM

Each compound was assayed on NCI-H226 lung (assay: inhibition of tumour cell growth, NCI panel, 48 h).

Row | Structure (SMILES) | TGI
5 | Nc1ncnc2c1ncn2C1OC(CSC(F)F)C(O)C1O (stereo unspecified) | > 100 µM
6 | CC(C)[C@@H](C)CC[C@@H](C)C1CC=C2[C@@H]3CCC4C[C@@H](O[Si](C)(C)C(C)(C)C)CC[C@]4(C)C3CC[C@@]21C (stereo partly specified) | > 100 µM
7 | COc1ccc(SS(=O)(=O)c2ccc(OC)cc2)cc1 | 50.1 µM
8 | Cn1ccnc1CCc1ccc(Cl)cc1Cl | > 100 µM

Each compound was assayed on NCI-H23 lung (assay: inhibition of tumour cell growth, NCI panel, 48 h).

Row | Structure (SMILES) | TGI
9 | Nc1ncnc2c1ncn2C1OC(CSC(F)F)C(O)C1O (stereo unspecified) | > 100 µM
10 | COc1ccc(SS(=O)(=O)c2ccc(OC)cc2)cc1 | 49.1 µM
11 | O=C(Nc1nc(=S)[nH][nH]1)C(=O)C1C(=O)Nc2ccccc2S1=O (stereo unspecified) | > 100 µM
12 | Cn1ccnc1CCc1ccc(Cl)cc1Cl | > 100 µM

The compounds below were run on NCI-H460 lung (assay: inhibition of tumour cell growth, NCI panel, 48 h).

Row | Structure (SMILES) | TGI
13 | Nc1ncnc2c1ncn2C1OC(CSC(F)F)C(O)C1O (stereo unspecified) | > 100 µM
14 | CC(C)[C@@H](C)CC[C@@H](C)C1CC=C2[C@@H]3CCC4C[C@@H](O[Si](C)(C)C(C)(C)C)CC[C@]4(C)C3CC[C@@]21C (stereo partly specified) | > 100 µM
15 | COc1ccc(SS(=O)(=O)c2ccc(OC)cc2)cc1 | 83.9 µM
16 | O=C(Nc1nc(=S)[nH][nH]1)C(=O)C1C(=O)Nc2ccccc2S1=O (stereo unspecified) | > 100 µM
17 | Cn1ccnc1CCc1ccc(Cl)cc1Cl | > 100 µM

These compounds were tested on NCI-H522 lung (assay: inhibition of tumour cell growth, NCI panel, 48 h).

Row | Structure (SMILES) | TGI
18 | Nc1ncnc2c1ncn2C1OC(CSC(F)F)C(O)C1O (stereo unspecified) | > 100 µM
19 | CC(C)[C@@H](C)CC[C@@H](C)C1CC=C2[C@@H]3CCC4C[C@@H](O[Si](C)(C)C(C)(C)C)CC[C@]4(C)C3CC[C@@]21C (stereo partly specified) | > 100 µM
20 | COc1ccc(SS(=O)(=O)c2ccc(OC)cc2)cc1 | 29.2 µM
21 | O=C(Nc1nc(=S)[nH][nH]1)C(=O)C1C(=O)Nc2ccccc2S1=O (stereo unspecified) | > 100 µM
22 | Cn1ccnc1CCc1ccc(Cl)cc1Cl | > 100 µM

These compounds were tested on OVCAR-3 ovarian (assay: inhibition of tumour cell growth, NCI panel, 48 h).

Row | Structure (SMILES) | TGI
23 | Nc1ncnc2c1ncn2C1OC(CSC(F)F)C(O)C1O (stereo unspecified) | > 100 µM
24 | CC(C)[C@@H](C)CC[C@@H](C)C1CC=C2[C@@H]3CCC4C[C@@H](O[Si](C)(C)C(C)(C)C)CC[C@]4(C)C3CC[C@@]21C (stereo partly specified) | > 100 µM
25 | COc1ccc(SS(=O)(=O)c2ccc(OC)cc2)cc1 | 33.8 µM
26 | O=C(Nc1nc(=S)[nH][nH]1)C(=O)C1C(=O)Nc2ccccc2S1=O (stereo unspecified) | > 100 µM
27 | Cn1ccnc1CCc1ccc(Cl)cc1Cl | > 100 µM

The compounds below were run on OVCAR-4 ovarian (assay: inhibition of tumour cell growth, NCI panel, 48 h).

Row | Structure (SMILES) | TGI
28 | Nc1ncnc2c1ncn2C1OC(CSC(F)F)C(O)C1O (stereo unspecified) | > 100 µM
29 | CC(C)[C@@H](C)CC[C@@H](C)C1CC=C2[C@@H]3CCC4C[C@@H](O[Si](C)(C)C(C)(C)C)CC[C@]4(C)C3CC[C@@]21C (stereo partly specified) | > 100 µM
30 | O=C(Nc1nc(=S)[nH][nH]1)C(=O)C1C(=O)Nc2ccccc2S1=O (stereo unspecified) | > 100 µM
31 | Cn1ccnc1CCc1ccc(Cl)cc1Cl | > 100 µM

These compounds were tested on OVCAR-5 ovarian (assay: inhibition of tumour cell growth, NCI panel, 48 h).

Row | Structure (SMILES) | TGI
32 | Nc1ncnc2c1ncn2C1OC(CSC(F)F)C(O)C1O (stereo unspecified) | > 100 µM
33 | COc1ccc(SS(=O)(=O)c2ccc(OC)cc2)cc1 | 76.4 µM
34 | Cn1ccnc1CCc1ccc(Cl)cc1Cl | > 100 µM

These compounds were tested on OVCAR-8 ovarian (assay: inhibition of tumour cell growth, NCI panel, 48 h).

Row | Structure (SMILES) | TGI
35 | Nc1ncnc2c1ncn2C1OC(CSC(F)F)C(O)C1O (stereo unspecified) | > 100 µM
36 | CC(C)[C@@H](C)CC[C@@H](C)C1CC=C2[C@@H]3CCC4C[C@@H](O[Si](C)(C)C(C)(C)C)CC[C@]4(C)C3CC[C@@]21C (stereo partly specified) | > 100 µM
37 | COc1ccc(SS(=O)(=O)c2ccc(OC)cc2)cc1 | 31.9 µM
38 | O=C(Nc1nc(=S)[nH][nH]1)C(=O)C1C(=O)Nc2ccccc2S1=O (stereo unspecified) | > 100 µM
39 | Cn1ccnc1CCc1ccc(Cl)cc1Cl | > 100 µM

These compounds were tested on RPMI-8226 leukemia (assay: inhibition of tumour cell growth, NCI panel, 48 h).

Row | Structure (SMILES) | TGI
40 | Nc1ncnc2c1ncn2C1OC(CSC(F)F)C(O)C1O (stereo unspecified) | > 100 µM
41 | CC(C)[C@@H](C)CC[C@@H](C)C1CC=C2[C@@H]3CCC4C[C@@H](O[Si](C)(C)C(C)(C)C)CC[C@]4(C)C3CC[C@@]21C (stereo partly specified) | > 100 µM
42 | COc1ccc(SS(=O)(=O)c2ccc(OC)cc2)cc1 | 75.4 µM
43 | Cn1ccnc1CCc1ccc(Cl)cc1Cl | > 100 µM

The compounds below were run on RXF 393 renal (assay: inhibition of tumour cell growth, NCI panel, 48 h).

Row | Structure (SMILES) | TGI
44 | CC(C)[C@@H](C)CC[C@@H](C)C1CC=C2[C@@H]3CCC4C[C@@H](O[Si](C)(C)C(C)(C)C)CC[C@]4(C)C3CC[C@@]21C (stereo partly specified) | > 100 µM
45 | COc1ccc(SS(=O)(=O)c2ccc(OC)cc2)cc1 | 32.3 µM
46 | Cn1ccnc1CCc1ccc(Cl)cc1Cl | > 100 µM

What follows are compounds tested on RXF-631 renal (assay: inhibition of tumour cell growth, NCI panel, 48 h).

Row | Structure (SMILES) | TGI
47 | Nc1ncnc2c1ncn2C1OC(CSC(F)F)C(O)C1O (stereo unspecified) | > 100 µM
48 | CC(C)[C@@H](C)CC[C@@H](C)C1CC=C2[C@@H]3CCC4C[C@@H](O[Si](C)(C)C(C)(C)C)CC[C@]4(C)C3CC[C@@]21C (stereo partly specified) | > 100 µM
49 | COc1ccc(SS(=O)(=O)c2ccc(OC)cc2)cc1 | > 100 µM
50 | O=C(Nc1nc(=S)[nH][nH]1)C(=O)C1C(=O)Nc2ccccc2S1=O (stereo unspecified) | > 100 µM
51 | Cn1ccnc1CCc1ccc(Cl)cc1Cl | > 100 µM

These compounds were tested on SF-268 CNS (assay: inhibition of tumour cell growth, NCI panel, 48 h).

Row | Structure (SMILES) | TGI
52 | Nc1ncnc2c1ncn2C1OC(CSC(F)F)C(O)C1O (stereo unspecified) | > 100 µM
53 | CC(C)[C@@H](C)CC[C@@H](C)C1CC=C2[C@@H]3CCC4C[C@@H](O[Si](C)(C)C(C)(C)C)CC[C@]4(C)C3CC[C@@]21C (stereo partly specified) | > 100 µM
54 | COc1ccc(SS(=O)(=O)c2ccc(OC)cc2)cc1 | 32.9 µM
55 | O=C(Nc1nc(=S)[nH][nH]1)C(=O)C1C(=O)Nc2ccccc2S1=O (stereo unspecified) | > 100 µM
56 | Cn1ccnc1CCc1ccc(Cl)cc1Cl | > 100 µM

The compounds below were run on SF-295 CNS (assay: inhibition of tumour cell growth, NCI panel, 48 h).

Row | Structure (SMILES) | TGI
57 | Nc1ncnc2c1ncn2C1OC(CSC(F)F)C(O)C1O (stereo unspecified) | > 100 µM
58 | COc1ccc(SS(=O)(=O)c2ccc(OC)cc2)cc1 | 39.3 µM
59 | O=C(Nc1nc(=S)[nH][nH]1)C(=O)C1C(=O)Nc2ccccc2S1=O (stereo unspecified) | > 100 µM
60 | Cn1ccnc1CCc1ccc(Cl)cc1Cl | > 100 µM

These compounds were tested on SF-539 CNS (assay: inhibition of tumour cell growth, NCI panel, 48 h).

Row | Structure (SMILES) | TGI
61 | Nc1ncnc2c1ncn2C1OC(CSC(F)F)C(O)C1O (stereo unspecified) | > 100 µM
62 | CC(C)[C@@H](C)CC[C@@H](C)C1CC=C2[C@@H]3CCC4C[C@@H](O[Si](C)(C)C(C)(C)C)CC[C@]4(C)C3CC[C@@]21C (stereo partly specified) | > 100 µM
63 | COc1ccc(SS(=O)(=O)c2ccc(OC)cc2)cc1 | 34 µM
64 | O=C(Nc1nc(=S)[nH][nH]1)C(=O)C1C(=O)Nc2ccccc2S1=O (stereo unspecified) | > 100 µM
65 | Cn1ccnc1CCc1ccc(Cl)cc1Cl | > 100 µM

These compounds were tested on SK-MEL-2 melanoma (assay: inhibition of tumour cell growth, NCI panel, 48 h).

Row | Structure (SMILES) | TGI
66 | Nc1ncnc2c1ncn2C1OC(CSC(F)F)C(O)C1O (stereo unspecified) | > 100 µM
